Patent US20250304571A1, “BIOLOGICALLY ACTIVE COMPOUNDS AND METHODS THEREOF” (Suzhou Keen Therapeutics Co., Ltd., priority 2022, published 2025)
Read-outs that look alike come from different tables or passages of the source.

What was measured:
[1] = system: KP4 (pancreatic ductal adenocarcinoma) cells; experiment: Cell viability (CellTiter Glo) assay, inhibition of KP4 cell proliferation; format: cell-based; conditions: Homo sapiens, KP-4; KP4 cells, 72 hours, CellTiter Glo; read-out: IC50, inhibition of KP4 cell proliferation
[2] = system: HT-1080 (fibrosarcoma) cells; experiment: Cell viability (CellTiter Glo) assay, inhibition of HT-1080 cell proliferation; format: cell-based; conditions: Homo sapiens, HT-1080 cells, 72 hours
[3] = system: 786-O (renal cell carcinoma) cells; experiment: Cell viability (CellTiter Glo) assay, inhibition of 786-O cell proliferation; format: cell-based; conditions: Homo sapiens, 786-0; 786-O cells, 72 hours, CellTiter Glo; read-out: IC50, inhibition of 786-O cell proliferation
786-O cells = experiment: Anti-proliferation activity in 786-O cells in the presence of a ferroptosis inhibitor (Ferrostatin-1 or Liproxstatin-1); format: cell-based; conditions: Homo sapiens
Procedure: In one assessment, cells (KP4, 786-0 and HT-1080) were seeded (700 cells/well, 1000 cells/well or 3000 cells/well) in 384-well or 96-well plates and incubated at 37° C./5% CO2 for 22-24 hours. A series of 8 different concentrations of compound stocks were created by 5-fold serial dilution in DMSO. These compounds were further diluted in culture media and were then added to cells (final concentrations: 100 μM, 20 μM, 4 μM, 0.8 μM, 0.16 μM, […].). After 72 hours of incubation, 30 μL of CellTiter Glo reagent (Promega) was added to each well and luminescence was measured after 10 minutes using SpectraMax M5/M5e (Molecular Devices). Luminescence from cells treated with DMSO alone was set as background and % of inhibition was calculated as follows: […]
Anti-proliferation activity of various compounds was also tested in the presence of an ferroptosis inhibitor, Ferrostatin-1 (2 μM) or Liproxstatin-1 (2 μM). Certain results are provided in Table 4 and Table 5 as examples. “A” indicates an IC50≤100 nM; “B” indicates an IC50 of >100 nM and ≤500 nM; “C” indicates an IC50>500 nM and ≤5 μM; and “D” indicates an IC50>5 μM.

[4] = Whole blood stability, mouse; format: in vitro ADME; conditions: 37° C.; for % Remaining: 1 μM; for half-life at 1 μM: male, Balb/c, fresh whole blood
Procedure: For example, in some embodiments, provided compounds have suitable stability profiles for various applications including therapeutic uses. Various technologies are available in the art for assessing properties, e.g., stability, of compounds and compositions, and can be utilized in accordance with the present disclosure. Certain useful technologies are described herein as examples. In some embodiments, stability was assessed in fresh blood samples, e.g., of human or mouse.
In some embodiments, fresh blood samples were collected from male Balb/c mouse with EDTA-K2 as anti-coagulant. Blood was collected before experiment and stored at 2˜8° C., and equilibrated to room temperature before use. Compounds were dissolved in DMSO at 10 mM concentration. Glibenclamide, used as an internal standard (1S), was prepared in DMSO at 1 mg/mL concentration. An aliquot of 594 μL of blank blood was spiked with 6 μL of working solution (100 μM) to achieve 1 μM of final concentration for test compounds. Solution samples were incubated for 0, 10, 30, 60, 90 and 120 minutes at 37° C., e.g., in a water bath.
An Agilent ZORBAX XDB-C18 (3.5 μm, 50×2.1 mm) was used for HPLC analysis. Mobile phases were 0.1% formic acid in water (mobile phase A), and 0.1% formic acid in acetonitrile (mobile phase B). The injection volume was 10 μL. Mass spectrometer was calibrated and tuned for each test compound. The % remaining of test compound in blood was calculated using the following equation: […]

[5] = Whole blood stability, human; format: in vitro ADME; conditions: 37° C.; for % Remaining: 1 μM; for half-life at 1 μM: fresh whole blood
[6] = 786-0, Ferrostatin-1 (2 μM), read-out: IC50, With Ferrostatin-1
[7] = 786-0, no ferroptosis inhibitor, read-out: IC50, No Ferroptosis Inhibitor (Table 4)
[8] = 786-0, 72 h, no ferroptosis inhibitor, read-out: IC50, No Ferroptosis Inhibitor (Table 5)

| Compound | IC50 [1] | IC50 [2] | IC50 [3] | IC50 (786-O cells; [8]) | also measured |
| --- | --- | --- | --- | --- | --- |
| C[C@@H]1CN(C(=N)OCc2nc(Nc3ccc(Oc4ccccc4)cc3)c3cc[nH]c3n2)C[C@H](C)N1C(=O)OC(C)(C)C [Compound D2] | < 100 nM | 100 to 500 nM |  |  |  |
| CN(C)C(=N)OCc1nc(Nc2ccc(Oc3ccccc3)cc2)c2cc[nH]c2n1 [Compound D3] | 500 to 5000 nM | 500 to 5000 nM | 500 to 5000 nM |  |  |
| N=C(OCc1nc(Nc2ccc(Oc3ccccc3)cc2)c2cc[nH]c2n1)N1CCC(F)(F)CC1 [Compound D6] | 100 to 500 nM |  | 100 to 500 nM |  | IC50 (786-O cells; [6]): > 5000 nM; IC50 (786-O cells; [7]): 100 to 500 nM |
| CC1(C)CN(c2ccc(Oc3ccccc3)cc2)c2nc(COC(=N)N3CCC(F)(F)CC3)nc(N)c21 [Compound E2] |  | < 100 nM | < 100 nM | < 100 nM | % Remaining ([4]; @ 240 min): 63.9% @ 240 min; half-life at 1 μM [4]: 6.47 h; % Remaining ([5]; @ 240 min): 69.7% @ 240 min; half-life at 1 μM [5]: 7.85 h |
| CC1(C)CN(c2ccc(Oc3ccccc3)cc2)c2nc(COC(=N)N3CCCCC3C(F)(F)F)nc(N)c21 (stereo not shown) [Compound E4] |  | < 100 nM | < 100 nM |  |  |
| CCN1CCN(C(=N)OCc2nc(N)c3c(n2)N(c2ccc(Oc4ccccc4)cc2)CC3(C)C)C2(CC2)C1=O [Compound E5] |  | 100 to 500 nM | 100 to 500 nM |  |  |
| C[C@@H]1CN(c2ncc(N3C(=O)C4(CCCC4)c4c(N)nc(COC(=N)N5CCC[C@@H]5C(F)(F)F)nc43)cn2)C[C@H](C)O1 [Compound E87, (4′-amino-7′-(2-((2S,6R)-2,6-dimethylmorpholino)pyrimidin-5-yl)-6′-oxo-6′,7′-dihydrospiro[cyclopentane-1,5′-pyrrolo[2,3-d]pyrimidin]-2′-yl)methyl (R)-2-(trifluoromethyl)pyrrolidine-1-carbimidate] |  |  | < 100 nM | < 100 nM |  |
| CNc1nc(COC(=N)N2CCC[C@@H]2C(F)(F)F)nc2c1C1(CCCC1)C(=O)N2c1cnc(N2C[C@@H](C)O[C@@H](C)C2)nc1 [Compound E88, (7′-{2-[(2R,6S)-2,6-dimethylmorpholin-4-yl]pyrimidin-5-yl}-4′-(methylamino)-6′-oxo-6′,7′-dihydrospiro[cyclopentane-1,5′-pyrrolo[2,3-d]pyrimidin]-2′-yl)methyl (2R)-2-(trifluoromethyl)pyrrolidine-1-carboximidate] |  |  | < 100 nM | < 100 nM |  |
| N=C(OCc1nc(N)c2c(n1)N(c1cnc(N3C4CCC3COC4)nc1)C(=O)C21CCCC1)N1CCC[C@@H]1C(F)(F)F [Compound E93] |  |  | < 100 nM | < 100 nM |  |
| CNc1nc(COC(=N)N2CCC[C@@H]2C(F)(F)F)nc2c1C1(CCCC1)C(=O)N2c1cnc(N2C3CCC2COC3)nc1 [Compound E94] |  |  | < 100 nM | < 100 nM |  |
| CNc1nc(COC(=N)N2CCOCC2C(F)(F)F)nc2c1C1(CCCC1)C(=O)N2c1cnc(N2C[C@@H](C)O[C@@H](C)C2)nc1 (stereo partly shown) [Compound E97] |  |  | 100 to 500 nM | 100 to 500 nM |  |
| CNc1nc(COC(=N)N2CCC[C@@H]2C(F)(F)F)nc2c1C1(CCCC1)C(=O)N2c1cnc(C2CCOCC2)nc1 [Compound E99] |  |  | 500 to 5000 nM | 500 to 5000 nM |  |
| N=C(OCc1nc(N)c2c(n1)N(c1cnc(C3CCOCC3)nc1)C(=O)C21CCCC1)N1CCC[C@@H]1C(F)(F)F [Compound E100, (4′-amino-6′-oxo-7′-(2-(tetrahydro-2H-pyran-4-yl)pyrimidin-5-yl)-6′,7′-dihydrospiro[cyclopentane-1,5′-pyrrolo[2,3-d]pyrimidin]-2′-yl)methyl (R)-2-(trifluoromethyl)pyrrolidine-1-carbimidate] |  |  | 100 to 500 nM | 100 to 500 nM |  |

Continued, in another order:

| IC50 [1] | IC50 [2] | IC50 [3] | IC50 (786-O cells; [8]) | Compound | also measured |
| --- | --- | --- | --- | --- | --- |
| < 100 nM | < 100 nM | 100 to 500 nM |  | N=C(OCc1nc(N)nc(Nc2ccc(Oc3ccccc3)cc2)n1)N1CCOCC1 [Compound F6] | % Remaining ([4]; @ 120 min): 78% @ 120 min; half-life at 1 μM [4]: 5.65 h; % Remaining ([5]; @ 120 min): 84% @ 120 min; half-life at 1 μM [5]: 6.07 h |
| 100 to 500 nM | 100 to 500 nM | < 100 nM |  | N=C(NC1CCCCC1)OCc1nc(N)nc(Nc2ccc(Oc3ccccc3)cc2)n1 [Compound F9] |  |
|  |  | < 100 nM | < 100 nM | N=C(OCc1nc(N)nc(Nc2ccc(Oc3ccccc3)cc2)n1)N1CCCCC1C(F)(F)F (stereo not shown) [Compound F12] |  |
| < 100 nM | < 100 nM | < 100 nM |  | N=C(OCc1nc(N)nc(Nc2ccc(Oc3ccccc3)cc2)n1)N1CCC(F)(F)CC1 [Compound F13] | IC50 (786-O cells; [6]): > 5000 nM; IC50 (786-O cells; [7]): < 100 nM; % Remaining ([4]; @ 240 min): 74% @ 240 min; half-life at 1 μM [4]: 7.95 h; % Remaining ([5]; @ 240 min): 57.6% @ 240 min; half-life at 1 μM [5]: 5.35 h |
|  | 500 to 5000 nM |  |  | N=C(OCc1nc(N)nc(Nc2ccc(Oc3ccccc3)cc2)n1)N1CCCCC1=O [Compound F18] |  |
|  | 500 to 5000 nM | 100 to 500 nM | 100 to 500 nM | CCN1CCN(C(=N)OCc2nc(N)nc(Nc3ccc(Oc4ccccc4)cc3)n2)C2(CC2)C1=O [Compound F19] |  |
|  | 100 to 500 nM | 100 to 500 nM | 100 to 500 nM | N=C(NC12CC3CC(CC(C3)C1)C2)OCc1nc(N)nc(Nc2ccc(Oc3ccccc3)cc2)n1 [Compound F20] |  |
|  |  | < 100 nM | < 100 nM | C#CCOc1cccc(Oc2ccc(Nc3nc(N)nc(COC(=N)N4CCC(F)(F)CC4)n3)cc2)c1 [Compound F21] |  |
|  | 100 to 500 nM | < 100 nM | < 100 nM | CN(C(=N)OCc1nc(N)nc(Nc2ccc(Oc3ccccc3)cc2)n1)C1CCCCC1 [Compound F22] |  |
| 100 to 500 nM | 100 to 500 nM | 100 to 500 nM |  | CN(C)C(=N)OCc1nc(N)nc(Nc2ccc(Oc3ccccc3)cc2)n1 [Compound F31] |  |
